According to patent US20230203059A1, “MACROCYCLIC JAK INHIBITOR AND USES THEREOF” (Biopolar Hongye (Guangdong) Pharmaceutical Co. Ltd., priority 2020, published 2023):

Legend:
Assay type in all cases: biochemical
JAK1 = JAK1 (Homo sapiens, UniProt P23458); assay: JAK kinase activity, homogeneous time-resolved fluorescence (JAK1 reaction system); conditions: ATP 2 μM, JAK1 protein 0.2 ng/μL; read-out: JAK 1 activity
How it was run: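 Kinase activity read as the 665 nm/615 nm time-resolved fluorescence ratio (320 nm excitation) after EDTA-containing antibody and XL-615 addition. Reaction ran 1 h at pH 7.0 (Hepes, MgCl2, DTT) with 0.2 ng/μL JAK1 and ATP at 2 μM. IC50 derived by Hill-slope fit.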

JAK2 = JAK2 (Homo sapiens, UniProt O60674); assay: JAK kinase activity, homogeneous time-resolved fluorescence (JAK2 reaction system); conditions: ATP 2 μM, JAK2 protein 0.01 ng/μL
Sequence of JAK2 (O60674 whole entry): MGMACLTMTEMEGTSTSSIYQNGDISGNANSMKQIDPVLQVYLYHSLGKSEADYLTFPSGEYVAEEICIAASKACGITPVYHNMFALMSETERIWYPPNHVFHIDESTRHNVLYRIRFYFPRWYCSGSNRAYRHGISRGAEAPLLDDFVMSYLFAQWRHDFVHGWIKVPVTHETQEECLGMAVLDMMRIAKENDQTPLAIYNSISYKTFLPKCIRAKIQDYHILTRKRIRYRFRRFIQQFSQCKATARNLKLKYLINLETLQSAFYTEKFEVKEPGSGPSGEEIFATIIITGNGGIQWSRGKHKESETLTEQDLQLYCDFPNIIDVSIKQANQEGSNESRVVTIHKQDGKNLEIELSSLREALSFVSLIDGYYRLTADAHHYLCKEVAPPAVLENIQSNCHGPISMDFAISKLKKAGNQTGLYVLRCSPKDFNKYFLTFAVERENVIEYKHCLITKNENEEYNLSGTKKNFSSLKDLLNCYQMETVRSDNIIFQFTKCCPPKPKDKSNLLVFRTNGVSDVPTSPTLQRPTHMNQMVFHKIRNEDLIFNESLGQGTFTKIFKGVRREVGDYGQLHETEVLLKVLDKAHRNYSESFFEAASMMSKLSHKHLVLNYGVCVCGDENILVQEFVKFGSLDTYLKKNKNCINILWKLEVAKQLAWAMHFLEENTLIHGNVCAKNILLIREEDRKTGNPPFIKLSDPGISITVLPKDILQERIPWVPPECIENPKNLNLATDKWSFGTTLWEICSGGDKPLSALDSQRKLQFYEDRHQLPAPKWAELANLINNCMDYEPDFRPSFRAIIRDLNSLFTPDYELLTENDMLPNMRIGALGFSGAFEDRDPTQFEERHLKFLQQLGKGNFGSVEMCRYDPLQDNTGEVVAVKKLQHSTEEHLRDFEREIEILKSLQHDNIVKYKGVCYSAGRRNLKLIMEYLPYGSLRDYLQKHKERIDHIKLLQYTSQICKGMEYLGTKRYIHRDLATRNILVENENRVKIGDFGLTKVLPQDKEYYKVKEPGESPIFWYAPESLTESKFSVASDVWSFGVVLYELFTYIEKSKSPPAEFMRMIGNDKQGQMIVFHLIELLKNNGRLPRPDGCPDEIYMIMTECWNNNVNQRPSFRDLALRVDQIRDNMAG
How it was run: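 IC50 derived by Hill-equation fit of the 665/615 nm time-resolved fluorescence ratio after EDTA-containing detection mix with anti-phosphosubstrate antibody. Preceding 1 h reaction contained 2 μM ATP, 0.01 ng/μL JAK2, substrate, 50 mM Hepes pH 7.0, 5 mM MgCl2, 1 mM DTT.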

JAK3 = target: T1, JAK3 (Homo sapiens, UniProt P52333); assay: JAK kinase activity, homogeneous time-resolved fluorescence (JAK3 reaction system); conditions: ATP 2 μM, JAK3 protein 0.04 ng/μL; read-out: JAK 3 activity
T1 sequence (P52333 1-1124): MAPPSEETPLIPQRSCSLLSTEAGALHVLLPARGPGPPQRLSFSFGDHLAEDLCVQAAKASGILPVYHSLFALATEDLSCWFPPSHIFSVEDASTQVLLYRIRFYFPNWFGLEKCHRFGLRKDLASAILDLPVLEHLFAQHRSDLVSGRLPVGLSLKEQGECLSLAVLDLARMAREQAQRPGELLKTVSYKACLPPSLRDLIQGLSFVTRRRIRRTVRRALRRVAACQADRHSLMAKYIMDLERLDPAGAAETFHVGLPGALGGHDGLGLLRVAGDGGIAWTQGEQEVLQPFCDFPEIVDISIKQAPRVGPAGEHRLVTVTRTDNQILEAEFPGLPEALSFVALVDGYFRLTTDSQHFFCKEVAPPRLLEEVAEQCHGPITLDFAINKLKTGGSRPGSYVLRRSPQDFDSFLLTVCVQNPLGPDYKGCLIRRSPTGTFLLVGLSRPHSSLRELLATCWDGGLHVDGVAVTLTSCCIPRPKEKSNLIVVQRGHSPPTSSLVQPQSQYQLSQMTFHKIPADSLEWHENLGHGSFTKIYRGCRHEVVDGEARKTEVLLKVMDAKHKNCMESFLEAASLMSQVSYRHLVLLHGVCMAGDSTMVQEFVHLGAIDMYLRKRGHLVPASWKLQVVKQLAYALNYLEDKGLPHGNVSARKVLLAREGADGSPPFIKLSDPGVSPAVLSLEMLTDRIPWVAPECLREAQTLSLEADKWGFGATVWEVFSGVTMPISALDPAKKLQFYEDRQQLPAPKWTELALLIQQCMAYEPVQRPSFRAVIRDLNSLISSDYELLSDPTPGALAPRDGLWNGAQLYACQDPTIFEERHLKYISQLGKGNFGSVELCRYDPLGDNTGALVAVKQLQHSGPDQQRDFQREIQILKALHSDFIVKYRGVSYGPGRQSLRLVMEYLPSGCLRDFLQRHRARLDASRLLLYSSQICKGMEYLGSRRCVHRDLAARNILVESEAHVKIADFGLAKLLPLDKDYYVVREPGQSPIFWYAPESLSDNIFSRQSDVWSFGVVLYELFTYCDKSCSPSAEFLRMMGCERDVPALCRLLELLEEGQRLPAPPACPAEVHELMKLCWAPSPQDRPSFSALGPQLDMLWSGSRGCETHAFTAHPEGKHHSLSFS

TYK2 = TYK2 (Homo sapiens, UniProt P29597); assay: JAK kinase activity, homogeneous time-resolved fluorescence (TYK2 reaction system); conditions: ATP 2 μM, TYK2 protein 0.2 ng/μL; read-out: TYK 2 activity
Sequence of TYK2 (P29597 whole entry): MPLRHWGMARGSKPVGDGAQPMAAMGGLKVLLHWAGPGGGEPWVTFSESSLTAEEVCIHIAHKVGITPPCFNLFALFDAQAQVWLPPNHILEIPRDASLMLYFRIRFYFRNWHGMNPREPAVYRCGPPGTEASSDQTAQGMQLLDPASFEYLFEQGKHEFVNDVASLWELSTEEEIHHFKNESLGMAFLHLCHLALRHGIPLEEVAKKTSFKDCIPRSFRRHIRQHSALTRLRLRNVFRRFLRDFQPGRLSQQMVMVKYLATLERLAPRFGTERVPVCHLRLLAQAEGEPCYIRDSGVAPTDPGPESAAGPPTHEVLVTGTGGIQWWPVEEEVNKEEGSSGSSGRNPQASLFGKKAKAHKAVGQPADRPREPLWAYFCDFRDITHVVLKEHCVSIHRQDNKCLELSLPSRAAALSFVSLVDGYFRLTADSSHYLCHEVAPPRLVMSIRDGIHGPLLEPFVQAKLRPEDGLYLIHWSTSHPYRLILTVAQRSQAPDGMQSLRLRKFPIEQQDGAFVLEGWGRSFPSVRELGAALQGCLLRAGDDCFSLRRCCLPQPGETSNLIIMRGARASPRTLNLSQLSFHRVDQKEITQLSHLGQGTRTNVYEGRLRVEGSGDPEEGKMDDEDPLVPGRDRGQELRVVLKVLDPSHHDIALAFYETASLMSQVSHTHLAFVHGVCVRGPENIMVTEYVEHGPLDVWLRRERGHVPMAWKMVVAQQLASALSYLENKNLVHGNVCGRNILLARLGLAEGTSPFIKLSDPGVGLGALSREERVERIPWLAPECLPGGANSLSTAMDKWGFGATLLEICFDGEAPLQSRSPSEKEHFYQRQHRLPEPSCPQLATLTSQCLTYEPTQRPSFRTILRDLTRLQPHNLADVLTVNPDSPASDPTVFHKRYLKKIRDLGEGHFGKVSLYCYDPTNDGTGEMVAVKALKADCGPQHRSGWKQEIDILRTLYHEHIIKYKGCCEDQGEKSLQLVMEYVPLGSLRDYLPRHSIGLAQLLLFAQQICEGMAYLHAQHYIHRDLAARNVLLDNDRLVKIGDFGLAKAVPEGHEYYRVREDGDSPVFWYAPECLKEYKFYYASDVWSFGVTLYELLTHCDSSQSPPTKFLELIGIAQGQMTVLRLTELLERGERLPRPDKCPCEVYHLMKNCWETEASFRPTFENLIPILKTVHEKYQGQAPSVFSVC
How it was run: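 Activity read as the 665 nm/615 nm ratio after adding EDTA-containing detection mix with anti-phospho-substrate antibody and XL-615. Beforehand, 0.2 ng/μL TYK2, 2 μM ATP, substrate and compound reacted 1 h in pH 7.0 Hepes buffer with MgCl2 and DTT. IC50 fitted with Hill-slope equation.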

Sequence of JAK1 (P23458 whole entry): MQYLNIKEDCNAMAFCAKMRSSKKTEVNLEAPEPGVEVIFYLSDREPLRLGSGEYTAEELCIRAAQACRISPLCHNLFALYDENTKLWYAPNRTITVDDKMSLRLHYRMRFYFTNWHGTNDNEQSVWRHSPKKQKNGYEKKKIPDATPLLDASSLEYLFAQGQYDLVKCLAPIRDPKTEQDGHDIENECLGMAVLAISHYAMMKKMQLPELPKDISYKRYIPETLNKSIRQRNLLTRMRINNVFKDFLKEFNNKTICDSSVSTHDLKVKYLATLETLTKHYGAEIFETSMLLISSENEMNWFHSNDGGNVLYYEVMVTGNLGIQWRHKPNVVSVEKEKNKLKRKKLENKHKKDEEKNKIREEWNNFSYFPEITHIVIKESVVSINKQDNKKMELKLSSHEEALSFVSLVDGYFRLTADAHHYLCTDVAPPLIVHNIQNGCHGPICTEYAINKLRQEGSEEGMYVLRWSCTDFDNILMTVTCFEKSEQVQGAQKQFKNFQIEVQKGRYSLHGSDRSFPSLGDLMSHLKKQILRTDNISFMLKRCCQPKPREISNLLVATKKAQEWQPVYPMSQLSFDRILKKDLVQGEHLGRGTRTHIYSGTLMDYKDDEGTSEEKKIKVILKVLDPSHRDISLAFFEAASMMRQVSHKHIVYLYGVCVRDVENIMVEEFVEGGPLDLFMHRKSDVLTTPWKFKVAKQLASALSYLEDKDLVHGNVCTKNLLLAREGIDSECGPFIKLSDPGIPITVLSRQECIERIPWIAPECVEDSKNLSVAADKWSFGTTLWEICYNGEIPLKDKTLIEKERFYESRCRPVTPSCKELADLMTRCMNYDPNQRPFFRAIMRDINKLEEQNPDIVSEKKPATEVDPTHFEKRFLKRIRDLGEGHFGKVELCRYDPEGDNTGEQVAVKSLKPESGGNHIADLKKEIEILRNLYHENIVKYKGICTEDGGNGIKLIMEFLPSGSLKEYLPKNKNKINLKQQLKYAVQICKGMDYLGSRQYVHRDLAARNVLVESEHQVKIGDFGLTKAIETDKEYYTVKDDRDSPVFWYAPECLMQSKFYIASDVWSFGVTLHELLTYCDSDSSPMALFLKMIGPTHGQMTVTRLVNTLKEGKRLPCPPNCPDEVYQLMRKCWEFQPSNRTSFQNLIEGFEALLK

SMILES | IC50 (JAK1) [nM] | IC50 (JAK2) [nM] | IC50 (JAK3) [nM] | IC50 (TYK2) [nM]
O=C1Nc2ccc(cc2)OCc2cc(ccc2OCC2CC2)Nc2nccc(n2)-c2ccc1cc2[N+](=O)[O-] [Example 206, 4^4-(cyclopropylmethoxy)-1-nitro-6-oxa-3,8-diaza-2(4,2)-pyrimidina-1,7(1,4),4(1,3)-tribenzenacyclo-nonaphane-9-one] | 1000 to 10000 | 101 to 1000 | < 10 | > 10000
Cc1cc2ccc1-c1ccnc(n1)Nc1ccc(N)c(c1)COCCCCNC2=O [Example 78, 4^4-amino-1^2-methyl-6-oxa-3,11-dia-za-2(4,2)-pyrimidina-1(1,4),4(1,3)-dibenzenacyclododecaphan-12-one] | 1000 to 10000 | 101 to 1000 | 11 to 100 | > 10000
